Test results reported in a melting point compilation (Tetko et al.; mined from patent text by program, amines drawn as free bases though some values may be those of a salt).

First: CCOC(=O)c1nc2scc(COC(=O)c3ccc(CO)cc3)c2c(=O)[nH]1
Second: CCOC(=O)C1CCc2c(sc3nc(CN4C(=O)COC4=O)c(Cl)c(-c4ccc(OC)cc4)c23)C1 (configuration not stated)
The melting point of the first is higher: 196 °C for the first, 118 to 119 °C for the second.

First: O=C(Oc1ccccc1)c1ccc(-c2ccccc2)cc1
Second: c1ccc(CN2CCc3[nH]c4ccc(Oc5ccccc5)cc4c3C2)cc1
The melting point of the first is higher: 146 to 149 °C for the first, 102 °C for the second.

`CNC(=O)n1nc(Oc2ccc([N+](=O)[O-])cc2C(F)(F)F)c(C)c1C` and `COC(=O)C1=C(C)NC(C)=C(C(=O)OCCCBr)C1c1cccc([N+](=O)[O-])c1` (configuration not stated) cannot be ordered by melting point: 113 to 115 °C for the first, 112 to 114 °C for the second.

First: CCOC(=O)c1c(C(F)(F)F)nc(C(F)F)c(C(=O)OC)c1CS(C)(=O)=O
Second: C=CCn1c(=O)c(C(=O)OCC)c(N2CCCC2)c2ccc(C)nc21
The melting point of the first is higher: 110 to 112 °C for the first, 97 to 103 °C for the second.

First: NS(=O)(=O)c1ccc(-n2nc(C(F)(F)F)cc2-c2nc3ccc(Cl)cc3s2)cc1
Second: Oc1cc(C(F)(F)F)ccc1-c1cc(Oc2ccc3cccnc3c2)ncn1
The melting point of the first is higher: 254 to 255 °C for the first, 210 to 212 °C for the second.

Compared with `O=c1[nH]c(=O)n(C2CC(OCc3ccccc3)C(CO)O2)cc1F` (configuration not stated), `O=C(O)Cc1ccc2ccn(Cc3ccccc3)c2c1` is lower in melting point: 138 to 139 °C for the first, 109 to 111 °C for the second.

First: CCOC(=O)C1=Cc2cc(Cl)cc(-c3ccccc3)c2OC1C(F)(F)F (configuration not stated)
Second: CN1C(=O)C(Cc2ccccc2)N(C)C(=O)C1=Cc1c(C#N)ccc(F)c1F (configuration not stated)
The melting point of the first is higher: 196 to 198 °C for the first, 175 °C for the second.

First: O=C1NC(=O)C(Cc2ccc(N3CCC(NC[C@H](O)c4cccc(Cl)c4)CC3)cc2)S1 (some centres not stated)
Second: O=S1(=O)N(CCN2CCN(c3ccc(F)cc3)CC2)c2cccc3c2N1CCC3
The melting point of the first is higher: 195 to 198 °C for the first, 118 °C for the second.

First: COc1ccc2cc(-c3oc4ccccc4c3C(O)CC3CCCC3)ccc2c1 (configuration not stated)
Second: CN1CCC(c2c[nH]c3ccc(C(=O)c4ccc5ccccc5c4)cc23)CC1
The melting point of the first is higher: 176 to 177 °C for the first, 92 °C for the second.

Compared with `CNC(=O)c1cc2cc(S(N)(=O)=O)sc2s1`, `Cc1cc(NC(=O)N(C)C)cc(C)c1S(=O)(=O)C[N+](=O)[O-]` is lower in melting point: 272 to 273 °C for the first, 205 to 206 °C for the second.

Compared with `COc1cc2c(c(OC)c1OC)C(=O)CC2`, `COc1ccc2c(c1)CCC(c1ccc(OC)cc1OC)C2=O` (configuration not stated) is higher in melting point: 114 to 115 °C for the first, 116 to 118 °C for the second.

First: CC(C)=Cn1cnc2c(N)nc3ccccc3c21
Second: CC(C)=Cc1c(C)nc(C)c(CO)c1-c1ccccc1
The melting point of the first is higher: 284 to 289 °C for the first, 48 to 50 °C for the second.

First: Cc1oc(-c2ccccc2)nc1COc1ccc(CCC2OC(=O)NC2=O)cc1 (configuration not stated)
Second: O=c1[nH]c(=S)[nH]c(-c2ccccc2)c1Cc1c(O)ccc2ccccc12
The melting point of the first is lower: 158 to 159 °C for the first, 253 to 255 °C for the second.

Compared with `CC1(C)CCC(C)(C)C2=C1C=C(CC#Cc1ccc(C(=O)O)cc1)CC2(O)OCc1ccc(C(F)(F)F)cc1` (configuration not stated), `OC1(c2cccc(C(F)(F)F)c2)CCN(CCCC2(c3ccc(F)cc3F)OCCO2)CC1` is lower in melting point: 222 °C for the first, 90 to 93 °C for the second.

First: O=C(NCCCCCCNC(=O)N(O)Cc1ccccc1)N(O)Cc1ccccc1
Second: CCCCNc1cc(CN(Cc2ccccc2)C(C)=O)cc(S(N)(=O)=O)c1Oc1ccccc1
The melting point of the first is higher: 181 to 182 °C for the first, 75 to 77 °C for the second.

Compared with `CCc1c(OCc2ccccc2)nc(OCc2ccccc2)nc1C(C#N)c1cc(C)cc(C#N)c1` (configuration not stated), `CCCCC(C)C(O)C=Cc1ccc(OCc2ccccc2)c(OCc2ccccc2)c1` (configuration not stated) is lower in melting point: 139 to 141 °C for the first, 77 to 78 °C for the second.

First: CS(=O)(=O)N1CC2(COc3cc4c(cc32)OCO4)c2ccccc21 (configuration not stated)
Second: Fc1ccc2c(C3CCN(CCC4COc5ccccc5O4)CC3)noc2c1 (configuration not stated)
The melting point of the first is higher: 215 to 217 °C for the first, 112 to 113 °C for the second.

Compared with `CC(=O)C1(c2ccc(Br)cc2)C=CC=CC1` (configuration not stated), `CC(=O)c1ccc(Cc2ccc(F)cc2)o1` is lower in melting point: 126 to 128 °C for the first, 27 to 29 °C for the second.

First: CC(=O)NC[C@@H]1C[C@H]1c1cccc2nn(C)c(F)c12 (relative stereo)
Second: COCCn1nc2c(N)nc3ncccc3c2c1CC(C)(C)C(N)=O
The melting point of the first is lower: 109 to 111 °C for the first, 254 to 257 °C for the second.

First: CC(=O)Nc1ccc(-c2ccc(NC(C)=O)cc2I)c(I)c1
Second: CC(C)(C)OC(=O)Nc1ccc(-c2ccc(Cl)c(Cl)c2)cc1N
The melting point of the first is higher: 300 to 301 °C for the first, 169 to 171 °C for the second.

First: O=C1c2ccc(N3CCCCC3)c3cc(Br)cc(c23)C(=O)N1O
Second: CC1Sc2c(C(=O)O)c(=O)c3cc(Cl)c(N4CCN(C)CC4)cc3n21 (configuration not stated)
The melting point of the first is lower: 134 to 136 °C for the first, 250 to 255 °C for the second.

First: CNC(=S)C1=CC(CF)(CF)Oc2ccc([N+](=O)[O-])cc21
Second: O=C(O)CN(CC(=O)O)CC(c1ccc([N+](=O)[O-])cc1)N(CC(=O)O)CC(=O)O (configuration not stated)
The melting point of the first is lower: 134 to 135 °C for the first, 171 to 174 °C for the second.

Compared with `CC1NC(=O)NN=C1c1ccc(S(N)(=O)=O)cc1` (configuration not stated), `[N-]=[N+]=NS(=O)(=O)c1ccc(C(=O)Cl)cc1` is lower in melting point: 259 to 264 °C for the first, 68 °C for the second.

Compared with `O=C1CCN(c2ccccc2)C(=O)C1=C1SC=CS1`, `Cc1cc(-c2ccccc2O)n(-c2ccccc2)n1` is higher in melting point: 150 to 152 °C for the first, 211 to 214 °C for the second.

Compared with `CNS(=O)(=O)OCCOc1ccc(Cl)cc1`, `CCCNS(=O)(=O)c1cc(C(=O)CBr)ccc1Cl` is lower in melting point: 101 to 104 °C for the first, 96 °C for the second.

First: Clc1ccc2c(NCC=CCNc3ccnc4cc(Cl)ccc34)ccnc2c1
Second: Cc1cc(F)ccc1-c1nc(OCCN)nc2c1ccc(=O)n2-c1c(F)cccc1F
The melting point of the first is higher: over 250 °C for the first, 96 to 99 °C for the second.

First: Cc1ccc(-c2ccc(Cl)c(C(=O)NCC34CC5CC(CC(C5)C3)C4)c2)nc1C(=O)O
Second: Cc1cc(CNC(=O)c2sc(N3C[C@@H](C)N(Cc4ccc(F)cc4)C3=O)nc2C)no1
The melting point of the first is higher: 180 to 185 °C for the first, 139 to 140 °C for the second.

Compared with `CCCN(CCO)C(=O)c1ccc(C(=O)N2CCN(c3ncccc3NC(C)C)CC2)cc1`, `CCCCC[C@@H](CNC(=O)Nc1c(N2CCOCC2)ncnc1N1CCOCC1)c1cccc2c1OCO2` is higher in melting point: 79 to 82 °C for the first, 128 to 132 °C for the second.

Compared with `O=C1C(=CCc2ccccc2)SC(=S)N1N=c1sc2ccccc2s1`, `CCCCC1=NSc2ccccc2N1Cc1ccc(-c2ccccc2C(=O)O)cc1` is lower in melting point: 233 to 234 °C for the first, 215 to 217 °C for the second.

First: O=C(NCCO)c1cccc(-c2cccc3nn(Cc4ccccc4F)cc23)c1
Second: O=C(O)c1cccc(CN2CCC(c3cn(CC4CC4)c4ccccc34)CC2)c1
The melting point of the first is lower: 159 to 160 °C for the first, 207 °C for the second.

First: Cc1ccc(-c2nc(C(N)=O)cs2)cc1
Second: NC(=O)c1nc(-c2ccc(Oc3ccc(F)cc3)c(F)c2)cs1
The melting point of the first is lower: 100 to 102 °C for the first, 183 °C for the second.

First: O=S(=O)(O)NCc1cc(I)cc(I)c1O
Second: CCCS(=O)(=O)NCCCCn1c(=O)c2c(C)nc3cccc1n32
The melting point of the first is higher: 168 to 170 °C for the first, 150 to 151 °C for the second.

First: Cc1ccc(Cl)c(N)c1C#N
Second: N#Cc1c(N)[nH]c2ccc(Sc3ccc(O)cc3)cc12
The melting point of the first is lower: 77 to 80 °C for the first, 241 to 242 °C for the second.

First: CC(CC(=O)N1CCCC1)Sc1cc(C(C)(C)C)c(O)c(C(C)(C)C)c1 (configuration not stated)
Second: S=C(Cc1ccc2ccccc2c1)N1CCCCC1
The melting point of the first is higher: 95 to 99 °C for the first, 89 to 91 °C for the second.

First: Cc1cccc(CCCCCCCCC(=O)Cl)c1
Second: CCCCCCCCCCCCc1nnn(C(C(=O)Nc2c(OC)cc(OC)cc2OC)c2ccccc2)n1 (configuration not stated)
The melting point of the first is lower: 96 to 98 °C for the first, 141 to 145 °C for the second.

First: O=C(O)CC(CCc1ccc(O)cc1)CC(=O)O
Second: CCCCOC(=O)NC(=O)C(C)(c1ccccc1)c1ccccc1
The melting point of the first is higher: 142 to 144 °C for the first, 83 °C for the second.

Compared with `Cc1ccc(=NC(=O)C(F)(F)F)n(-c2cccc(C(F)(F)F)c2)c1`, `CSc1ccc(C=C2C(C)=C(CC(=O)O)c3cc(F)ccc32)cc1` is higher in melting point: 115 °C for the first, 187 to 188 °C for the second.

First: Fc1nc(NCc2ccncc2)c2nc[nH]c2n1
Second: Cc1cccc(C)c1CNc1cc(Br)cc2c1nc(C)n2C
The melting point of the first is higher: 200 to 202 °C for the first, 185 °C for the second.

Compared with `CCCCCCCCC1CC(Cn2cncn2)(c2ccc(OC)cc2)N(C)O1` (configuration not stated), `COc1ccc(Cc2nc(S)[nH]c2Cc2ccc(OC)cc2)cc1` is higher in melting point: 89 to 91 °C for the first, 270 °C for the second.

First: CSc1nccc(NC(N)=NCC(F)(F)F)n1
Second: CCc1c(Oc2cnc(N)nc2N)cc(C)c2sccc12
The melting point of the first is higher: 201 to 202 °C for the first, 181 °C for the second.

Compared with `O=C(OCCc1noc(-c2ccc(CN3CCCCCC3)s2)n1)c1ccccc1`, `c1ccc(CNn2cnnc2-c2ccc(CN3CCCCCC3)s2)cc1` is lower in melting point: 121 to 123 °C for the first, 79 to 81 °C for the second.

First: Cc1cc(C)n(-c2ccc(N3CCOCC3)nn2)n1
Second: CC(=O)Nc1ccc(-n2ccnc2SCc2ccccc2N2CCOCC2)nc1
The melting point of the first is lower: 119 to 121 °C for the first, 164 to 167 °C for the second.

First: Cc1cc(C)n2nc(SCc3ccccc3)nc2c1
Second: Clc1ccc(C#Cc2ccccc2)cn1
The melting point of the first is lower: 69 to 70 °C for the first, 70 to 72 °C for the second.

First: Cc1ccc2c3c(ccc2n1)OC[C@H](CN1CCN(c2cccc4c2OCCO4)CC1)O3
Second: COc1ccc(N2CCN(c3c(C)c(C)c4c(c3C)C(N3CCc5ccccc53)C(C)(C)O4)CC2)cc1 (configuration not stated)
The melting point of the first is lower: 154 to 155 °C for the first, 166 to 168 °C for the second.

Compared with `CC1CC2C3CCC4=CC(=O)CCC4=C3C(c3ccc(-c4cccnc4)cc3)CC2(C)C1C(=O)C1CC1` (configuration not stated), `CN(C)S(=O)(=O)N(c1ccc(C(=O)Nc2ccc(Br)cc2)cc1)C1OC(=O)c2ccccc21` (configuration not stated) is higher in melting point: 206 °C for the first, 244 to 246 °C for the second.

First: CC(C)N1CCC(N2CCN(CCN3CCCCC3)C2=C(C#N)C#N)CC1
Second: CCCC(=O)NC1CCc2ccccc2C1 (configuration not stated)
The melting point of the first is higher: 93 to 95 °C for the first, 78 to 81 °C for the second.

First: O=CN1CCN(c2ccc3cc(F)ccc3n2)CC1
Second: CSc1ccc(CC2C(C)=Cc3cc(F)ccc32)cc1 (configuration not stated)
The melting point of the first is higher: 110 to 111 °C for the first, 58 to 59 °C for the second.

Compared with `CCOC(=O)c1ncn(-c2nc(C)cs2)c1Cl`, `COc1cc2onc(N)c2cc1Br` is higher in melting point: 98 to 101 °C for the first, 226 to 227 °C for the second.

First: O=C(NC1CCCCC1O)c1ccccc1 (configuration not stated)
Second: CCCCNC(=O)OCCCC(=O)c1ccccc1
The melting point of the first is higher: 172 to 173 °C for the first, 52 to 58 °C for the second.

First: CS(=O)(=O)c1ccc(-c2sc(-c3ccccc3Cl)nc2-c2ccc(Br)cc2)cc1
Second: COCCOc1cc(N(C)S(=O)(=O)c2cccs2)c2[nH]c(C3=NCC(CC(=O)O)S3)cc2c1 (configuration not stated)
The melting point of the first is higher: 168 to 184 °C for the first, 113 to 114 °C for the second.

First: CC(C)CC(N)C(=O)NC(=O)N(CCCl)N=O (racemic)
Second: C=CCC(C#N)(C#N)C(C)(C)c1cccc(Cl)c1
The melting point of the first is lower: 82 to 84 °C for the first, 84.3 °C for the second.
